Reference: PubChem BioAssay AID256 (DTP/NCI, 2004)
Several values for one entry are separate records, joined by “and”; a condition that tells them apart may be missing. Equal values may be shown once. Toxic doses and inconclusive results are not listed.

Tested on: CD2F1 mice, L1210 leukemia ip, survival T/C
Assay: NCI In Vivo Anticancer Drug Screen. Data for tumor model L1210 Leukemia (intraperitoneal) in CD2F1 (CDF1) mice
Conditions: higher = longer survival
Procedure, shortened: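 Ratio T/C, where T is the treated-group value and C the vehicle-dosed control value, from mice implanted with a transplantable tumor.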

[1] = endpoint: mean survival time, dose: 100.0 mg/kg/injection, schedule: Q01DX009 (ip), vehicle: saline with Tween-80
[2] = endpoint: mean survival time, dose: 100.0 mg/kg/injection, schedule: Q04DX003 (ip), vehicle: saline with Tween-80
[3] = endpoint: mean survival time, dose: 200.0 mg/kg/injection, schedule: Q01DX009 (ip), vehicle: saline with Tween-80
[4] = endpoint: mean survival time, dose: 200.0 mg/kg/injection, schedule: Q04DX003 (ip), vehicle: saline with Tween-80
[5] = endpoint: mean survival time, dose: 400.0 mg/kg/injection, schedule: Q01DX009 (ip), vehicle: saline with Tween-80
[6] = endpoint: mean survival time, dose: 400.0 mg/kg/injection, schedule: Q04DX003 (ip), vehicle: saline with Tween-80
[7] = endpoint: mean survival time, dose: 100.0 mg/kg/injection, schedule: Q01DX001 (ip), vehicle: saline with Tween-80
[8] = endpoint: mean survival time, dose: 200.0 mg/kg/injection, schedule: Q01DX001 (ip), vehicle: saline with Tween-80

## CC(=O)Oc1ccc(CC2N=C(c3ccccc3)OC2=O)cc1 (stereo not given)
endpoint: mean survival time, dose: 50.0 mg/kg/injection, schedule: Q01DX009 (ip), vehicle: saline with Tween-80
  T/C: 87 % of control
[1]
  T/C: 91 % of control

## COC(=O)CC(=O)c1ccc(OC(C)C)cc1
[1]
  T/C: 100 % of control
[2]
  T/C: 87 % of control
[3]
  T/C: 107 % of control
[4]
  T/C: 90 % of control
[5]
  T/C: 104 % of control
[6]
  T/C: 87 % of control

## COC(=O)/C(Br)=C/C(C)=O
[7]
  T/C: 107 % of control
[8]
  T/C: 95 % of control

## N#CCCn1c2ccccc2c2ccccc21
[2]
  T/C: 98 % of control
[4]
  T/C: 94 % of control
[6]
  T/C: 94 % of control

## CN1CCCN(C(=S)S)CC1
endpoint: mean survival time, dose: 25.0 mg/kg/injection, schedule: Q04DX003 (ip), vehicle: saline
  T/C: 98 % of control
endpoint: mean survival time, dose: 50.0 mg/kg/injection, schedule: Q04DX003 (ip), vehicle: saline
  T/C: 103 % of control
endpoint: mean survival time, dose: 100.0 mg/kg/injection, schedule: Q04DX003 (ip), vehicle: saline
  T/C: 103 % of control

## c1ccc(NC2=NCCO2)cc1
[2]
  T/C: 93 % of control
[4]
  T/C: 98 % of control

## CCOc1ccc(-n2c(=O)c(N=Nc3ccccc3)c(O)n(-c3ccc(C)cc3)c2=S)cc1
[7]
  T/C: 97 % of control
[8]
  T/C: 89 % of control

## N=C(N)[Se]
[2]
  T/C: 95 % of control
[4]
  T/C: 101 % of control
[6]
  T/C: 95 % of control

## O=C(O)C(O)C(O)C(O)C(O)C(O)CO.[NH-]C1CCCCC1[NH-].[Pt+2] (stereo not given)
endpoint: median survival time, dose: 12.5 mg/kg/injection, schedule: Q04DX003 (ip), vehicle: saline
  T/C: 153 % of control and 178 % of control
endpoint: median survival time, dose: 25.0 mg/kg/injection, schedule: Q04DX003 (ip), vehicle: saline
  T/C: 266 % of control and 297 % of control
endpoint: median survival time, dose: 50.0 mg/kg/injection, schedule: Q04DX003 (ip), vehicle: saline
  T/C: 175 % of control and 375 % of control
endpoint: median survival time, dose: 100.0 mg/kg/injection, schedule: Q04DX003 (ip), vehicle: saline
  T/C: 103 % of control

## O=C(O)/C=C/C(=O)Nc1ccc(Cl)c(Cl)c1
endpoint: mean survival time, dose: 6.25 mg/kg/injection, schedule: Q01DX009 (ip), vehicle: Klucel (hydroxypropylcellulose) (HPC)
  T/C: 93 % of control
endpoint: mean survival time, dose: 12.5 mg/kg/injection, schedule: Q01DX009 (ip), vehicle: Klucel (hydroxypropylcellulose) (HPC)
  T/C: 96 % of control and 98 % of control
endpoint: mean survival time, dose: 25.0 mg/kg/injection, schedule: Q01DX009 (ip), vehicle: Klucel (hydroxypropylcellulose) (HPC)
  T/C: 113 % of control and 104 % of control
endpoint: mean survival time, dose: 50.0 mg/kg/injection, schedule: Q01DX009 (ip), vehicle: Klucel (hydroxypropylcellulose) (HPC)
  T/C: 114 % of control and 104 % of control and 110 % of control
endpoint: mean survival time, dose: 100.0 mg/kg/injection, schedule: Q01DX009 (ip), vehicle: Klucel (hydroxypropylcellulose) (HPC)
  T/C: 104 % of control and 107 % of control and 109 % of control
endpoint: mean survival time, dose: 200.0 mg/kg/injection, schedule: Q01DX009 (ip), vehicle: Klucel (hydroxypropylcellulose) (HPC)
  T/C: 98 % of control

## O=[N+]([O-])c1ccc(N/N=C(\c2ccccc2)C2OCCC2c2ccccc2)c([N+](=O)[O-])c1 (stereo not given)
[2]
  T/C: 97 % of control
[4]
  T/C: 91 % of control
[6]
  T/C: 94 % of control

## O=C1CCCN1c1ccc([N+](=O)[O-])cc1
endpoint: mean survival time, dose: 12.5 mg/kg/injection, schedule: Q04DX002 (ip), vehicle: saline with Tween-80
  T/C: 102 % of control
endpoint: mean survival time, dose: 25.0 mg/kg/injection, schedule: Q04DX002 (ip), vehicle: saline with Tween-80
  T/C: 102 % of control
endpoint: mean survival time, dose: 50.0 mg/kg/injection, schedule: Q04DX002 (ip), vehicle: saline with Tween-80
  T/C: 102 % of control
[7]
  T/C: 110 % of control
[1]
  T/C: 98 % of control
[8]
  T/C: 104 % of control
[3]
  T/C: 98 % of control
endpoint: mean survival time, dose: 400.0 mg/kg/injection, schedule: Q01DX001 (ip), vehicle: saline with Tween-80
  T/C: 101 % of control
[5]
  T/C: 106 % of control

## Nc1nc(N)nc(N)n1
[1]
  T/C: 95 % of control
[2]
  T/C: 97 % of control
[3]
  T/C: 94 % of control
[4]
  T/C: 105 % of control
[5]
  T/C: 95 % of control
[6]
  T/C: 97 % of control
endpoint: mean survival time, dose: 800.0 mg/kg/injection, schedule: Q01DX009 (ip), vehicle: saline with Tween-80
  T/C: 90 % of control

## OCCOc1ccc(Cl)cc1
[1]
  T/C: 104 % of control
[2]
  T/C: 96 % of control
[3]
  T/C: 100 % of control
[4]
  T/C: 96 % of control
[6]
  T/C: 103 % of control

## COC(=O)c1ccccc1-c1c(C)cccc1[N+](=O)[O-]
endpoint: mean survival time, dose: 100.0 mg/kg/injection, schedule: Q01DX001 (ip), vehicle: Klucel (hydroxypropylcellulose) (HPC)
  T/C: 98 % of control
endpoint: mean survival time, dose: 200.0 mg/kg/injection, schedule: Q01DX001 (ip), vehicle: Klucel (hydroxypropylcellulose) (HPC)
  T/C: 87 % of control
endpoint: mean survival time, dose: 400.0 mg/kg/injection, schedule: Q01DX001 (ip), vehicle: Klucel (hydroxypropylcellulose) (HPC)
  T/C: 89 % of control
